The values that follow come from US8895499B2, “β-hairpin peptidomimetics” (Polyphor AG, priority 2010, dated 2014).

Each structure is given as a SMILES string. Converted amounts (≈) assume the structure as drawn. Peptide text beside a SMILES is read from it. Bounds are passed on as bounds.

A short description of data set [1]: in vitro. The class given is cell-based. The method, then: The cytotoxicity of the peptides to HELA cells (Acc57) and COS-7 cells (CRL-1651) was determined using the MTT reduction assay (T. Mossman, J. Immunol. Meth. 1983, 65, 55-63; M. V. Berridge, A. S. Tan, Arch. Biochem. Biophys. 1993, 303, 474-482). Briefly, the method was as follows: 4000 HELA cells/well and 3400 COS-7 cells/well were seeded and grown in 96-well microtiter plates for 24 h at 37° C. at 5% CO2. Thereafter, time zero (Tz) was determined by MTT reduction (see below). The supernatant of the remaining wells was discarded, and fresh medium and compounds in serial dilutions (12.5, 25 and 50 μg/mL, triplicates) were pipetted into the wells. After incubation of the cells for 48 h at 37° C. at 5% CO2 the supernatant was discarded again and 100 μL MTT reagent (0.5 mg/mL in RPMI1640 and DMEM, respectively)/well was added. Following incubation at 37° C. for 2-4 h the media were aspirated and the cells were spiked (100 μL isopropanol/well). The absorbance of the solubilized formazan was measured at 595 nm (OD595peptide). For each concentration averages were calculated from triplicates. The percentage of growth was calculated as follows: (OD595peptide-OD595Tz-OD595Empty well)/(OD595Tz-OD595Empty well)×100%. The GI50 (Growth Inhibition) concentrations were calculated for each peptide by using a trend line function for the concentrations (50, 25, 12.5 and 0 μg/mL), the corresponding percentages and the value 50, (=TREND (C50:C0%50:%0,50).

Data set [2] deals with Shigella boydii DSM 7532. Conditions: Mueller-Hinton II broth + 0.02% BSA, 18-20 hours at 37° C. On the procedure:
[…] colony forming units (CFU)/mL. Aliquots (50 μl) of inoculate were added to 50 μl of MH broth+0.02% BSA containing the peptide in serial two-fold dilutions. The following microorganisms were used to determine antibiotic selectivity of the peptides: Bacillus subtilis DSM 10 and Shigella boydii DSM 7532.

Data set [3] concerns human red blood cells (hRBC). The class given is cell-based. Conditions: red cells of human, 1 h. On the procedure: The peptides were tested for their hemolytic activity against human red blood cells (hRBC). Fresh hRBC were washed three times with phosphate buffered saline (PBS) and centrifuged for 10 min at 2000×g. Compounds (100 μg/mL) were incubated with 20% hRBC (v/v) for 1 h at 37° C. and shaking at 300 rpm. The final erythrocyte concentration was approximately 0.9×10^9 cells/mL. A value of 0% and 100% cell lyses, respectively, was determined by incubation of hRBC in the presence of PBS containing 0.001% acetic acid and 2.5% Triton X-100 in H2O, respectively. The samples were centrifuged, the supernatants were 8-fold diluted in PBS buffer and the optical densities (OD) were measured at 540 nm. The 100% lyses value (OD540H2O) gave an OD50 of approximately 0.5-1.0.
Percent hemolysis was calculated as follows: (OD540peptide/OD540H2O)×100%.

As to `CC[C@H](C)[C@@H]1NC(=O)[C@H](CCCNC(=N)N)NC(=O)[C@H](Cc2c[nH]c3ccccc23)NC(=O)[C@@H]2CCCN2C(=O)[C@H]2CCCN2C(=O)[C@H](C)NC(=O)[C@H](CCCNC(=N)N)NC(=O)[C@H](CC(N)=O)NC(=O)[C@H](CCCNC(=N)N)NC(=O)[C@H](CCCCN)NC(=O)[C@H](CC(N)=O)NC(=O)[C@@H](CCCNC(=N)N)NC(=O)[C@H]([C@@H](C)CC)NC(=O)[C@H](CCCNC(=N)N)NC1=O` [Example 3] (HELM PEPTIDE1{W.R.I.R.I.[dR].N.K.R.N.R.A.[dP].P}$PEPTIDE1,PEPTIDE1,1:R1-14:R2$$$V2.0), the GI50 at 48 h in data set [1] (African green monkey) and in data set [1] (human) was over 50 µg/mL each time. Further, the “Shigella boydii DSM 7532 MIC” value in data set [2] amounted to 16 µg/mL. Besides, in data set [3], the “Hemolysis at 100 μg/mL” value came to 0.1%.
On to `CC[C@H](C)[C@@H]1NC(=O)[C@H](CCCNC(=N)N)NC(=O)[C@H](Cc2c[nH]c3ccccc23)NC(=O)[C@@H]2CCCN2C(=O)[C@H]2CCCN2C(=O)[C@H](CCCNC(=N)N)NC(=O)[C@H](CCCNC(=N)N)NC(=O)[C@H](CC(N)=O)NC(=O)[C@H](CCCNC(=N)N)NC(=O)[C@H](Cc2c[nH]cn2)NC(=O)[C@H](CC(N)=O)NC(=O)[C@@H](CCCNC(=N)N)NC(=O)[C@H]([C@@H](C)CC)NC(=O)[C@H](CCCNC(=N)N)NC1=O` [Example 18] (HELM PEPTIDE1{W.R.I.R.I.[dR].N.H.R.N.R.R.[dP].P}$PEPTIDE1,PEPTIDE1,1:R1-14:R2$$$V2.0), for which the values for the GI50 at 48 h in data set [1] (African green monkey) and in data set [1] (human) were over 50 µg/mL and 39 µg/mL (≈ 20.4 µM), respectively. Moreover, in data set [2], the “Shigella boydii DSM 7532 MIC” value stood at 4 µg/mL. Besides, the “Hemolysis at 100 μg/mL” value in data set [3] is 0.3%.
Turning to `CC[C@H](C)[C@@H]1NC(=O)[C@H](CCCNC(=N)N)NC(=O)[C@H](Cc2c[nH]c3ccccc23)NC(=O)[C@@H]2CCCN2C(=O)[C@H]2CCCN2C(=O)[C@H](C)NC(=O)[C@H](CCC(N)=O)NC(=O)[C@H](CC(C)C)NC(=O)[C@H](CCCNC(=N)N)NC(=O)[C@H](CCC(N)=O)NC(=O)[C@H](CC(N)=O)NC(=O)[C@@H](CCCNC(=N)N)NC(=O)[C@H]([C@@H](C)CC)NC(=O)[C@H](CCCN)NC1=O` [Example 8] (HELM PEPTIDE1{W.R.I.[Orn].I.[dR].N.Q.R.L.Q.A.[dP].P}$PEPTIDE1,PEPTIDE1,1:R1-14:R2$$$V2.0), the 50% growth inhibitory concentration (GI50) at 48 h in data set [1] (African green monkey) and in data set [1] (human) was over 50 µg/mL each time. In addition, the “Shigella boydii DSM 7532 MIC” value in data set [2] is 16 µg/mL. Further, the “Hemolysis at 100 μg/mL” value in data set [3] is listed as 0.0%.

One may read the GI50 as the concentration giving 50% growth inhibition.
